In brackets after ≈: the same amount, converted by molar mass.
System: P388
Test: Cytotoxicity against mouse P388 cells
Type: functional
Conditions: read-out: ED50 (the source's name)

C\C(=C/C=C/C(C)=C1/C(=O)C[C@H]2[C@@]3(C)CCC(=O)C(C)(C)[C@@H]3CC[C@]12C)c1ccc(C)c(=O)o1 [STELLETIN A]
EC50: 1 ng/mL (≈ 2.16 nM)

From ChEMBL document CHEMBL1148077, “Stellettin A, a new triterpenoid pigment from the marine sponge Stelletta tenuis” (1994)
